Where two headings read alike, the source gives them in different places.
How the values were obtained:
[1] = system: HAP1 MTAP-intact cell line; experiment: SDMA in-cell western assay, HAP1 MTAP-intact
MTAP-deleted cell line = experiment: viability assay for the MTAP-deleted cell line; assay type: cell-based
[2] = system: HAP1 MTAP-deleted cell line; experiment: SDMA in-cell western assay, HAP1 MTAP-deleted; settings: for Hap1 MTAP intact/deleted ratio: IC50 ratio between HAP1 MTAP-intact and HAP1 MTAP-deleted cell line
[3] = Homo sapiens, HAP1, read-out: Hap1 MTAP intact IC50, SDMA in-cell western, HAP1 MTAP-intact cell line
[4] = Homo sapiens, HAP1, viability assay
[5] = Homo sapiens, HAP1, read-out: Hap1 MTAP deleted IC50, SDMA in-cell western, HAP1 MTAP-deleted cell line
[6] = Homo sapiens, HAP1, read-out: Hap1 MTAP deleted IC90, SDMA in-cell western, HAP1 MTAP-deleted cell line
[7] = Homo sapiens, HAP1, read-out: Hap1 MTAP intact IC50, SDMA in-cell western assay, HAP1 MTAP-intact cell line
[8] = Homo sapiens, HAP1, read-out: Hap1 MTAP deleted IC50, SDMA in-cell western assay, HAP1 MTAP-deleted cell line
[9] = Homo sapiens, HAP1, read-out: Hap1 MTAP deleted IC90, SDMA in-cell western assay, HAP1 MTAP-deleted cell line

Structure (SMILES) | IC50 [1, 3] [nM] | IC50 [2, 5] [nM] | IC90 [2, 6] [nM] | IC50 [1, 7] [nM] | IC50 [2, 8] [nM] | IC90 [2, 9] [nM] | IC50 ([1]; read-out: Hap1 MTAP intact IC50, SDMA in-cell western assay, HAP1 MTAP-intact cell line) [nM] | IC50 ([2]; read-out: Hap1 MTAP deleted IC50, SDMA in-cell western assay, HAP1 MTAP-deleted cell line) [nM] | IC90 ([2]; read-out: Hap1 MTAP deleted IC90, SDMA in-cell western assay, HAP1 MTAP-deleted cell line) [nM] | IC50 (MTAP-deleted cell line; [4]) [nM] | Hap1 MTAP intact/deleted ratio ([2]; SDMA in-cell western) | Hap1 MTAP intact/deleted ratio ([2]; SDMA in-cell western assay) | IC50 ([1]; Homo sapiens, HAP1, read-out: Hap1 MTAP intact IC50) [nM] | IC50 (MTAP-deleted cell line; viability assay, read-out: Hap1 MTAP deleted viability IC50) [nM]
C[C@H]1CC[C@H](c2ccc3ccc(C4CCN(C)CC4)nc3c2)N(C(=O)C(=O)Nc2ccn3ccnc3c2)C1 [Compound 170, N-(imidazo[1,2-a]pyridin-7-yl)-2-((2R,5S)-5-methyl-2-(2-(1-methylpiperidin-4-yl)quinolin-7-yl)piperidin-1-yl)-2-oxoacetamide] | > 50 | 5 to 50 | > 125 |  |  |  |  |  |  | < 100 | A (“A” indicates an IC50 ratio greater than or equal to 30 fold) |  |  | 
Nc1ncc(NC(=O)C(=O)N2CCCCC2c2cccc(N3CCCC3)c2)c2[nH]ncc12 (single isomer, unassigned) [Compound 213] |  |  |  | > 50 | 5 to 50 | > 125 |  |  |  | 100 to 1000 |  | A (“A” indicates an IC50 ratio greater than or equal to 30 fold) |  | 
C[C@@H]1CC[C@@H](c2ccc3cnccc3c2)N(C(=O)C(=O)Nc2cnc(N)c3cn[nH]c23)C1 (racemic) [Compound 22, rac-N-(4-amino-1H-pyrazolo[4,3-c]pyridin-7-yl)-2-((2R,5S)-2-(isoquinolin-6-yl)-5-methylpiperidin-1-yl)-2-oxoacetamide] | 5 to 50 | < 5 | < 75 |  |  |  |  |  |  | < 100 | C (“C” indicates an IC50 ratio of less than 15 fold) |  |  | 
C[C@H]1CC[C@H](c2ccc3scnc3c2)N(C(=O)C(=O)Nc2cnc(N)c3c2cnn3C)C1 [Compound 199, N-(7-Amino-1-methyl-pyrazolo[3,4-c]pyridin-4-yl)-2-oxo-2-[(2R,5S)-2-(1,3-benzothiazol-5-yl)-5-methyl-1-piperidyl]acetamide] |  |  |  |  | < 5 | < 75 |  |  |  | < 100 |  | C (“C” indicates an IC50 ratio of less than 15 fold) | 5 to 50 | 
CN(C)c1cccc(C2CCCCN2C(=O)C(=O)Nc2cnc(N)c3cn[nH]c23)c1 (single isomer, unassigned) [Compound 283] |  |  |  |  |  |  | 5 to 50 | < 5 | < 75 |  |  | A (“A” indicates an IC50 ratio greater than or equal to 30 fold) |  | < 100
CCn1cc2ccc([C@H]3CC[C@H](C)CN3C(=O)C(=O)Nc3cnc(N)c4cn[nH]c34)cc2n1 (racemic) [Compound 253, N-(4-Amino-1H-pyrazolo[4,3-c]pyridin-7-yl)-2-oxo-2-[rac-(2R,5S)-2-(2-ethylindazol-6-yl)-5-methyl-1-piperidyl]acetamide] |  |  |  | < 5 | < 5 | < 75 |  |  |  | < 100 |  | C (“C” indicates an IC50 ratio of less than 15 fold) |  | 
C[C@H]1CC[C@H](c2ccc(F)c(F)c2)N(C(=O)C(=O)Nc2cnc(N)c3cn[nH]c23)C1 [Compound 151, N-(4-amino-1H-pyrazolo[4,3-c]pyridin-7-yl)-2-((2R,5S)-2-(3,4-difluorophenyl)-5-methylpiperidin-1-yl)-2-oxoacetamide] | > 50 | < 5 | < 75 |  |  |  |  |  |  | < 100 | A (“A” indicates an IC50 ratio greater than or equal to 30 fold) |  |  | 
CC[C@@H]1CC[C@@H](C)N(C(=O)C(=O)Nc2cnc(N)c3cn[nH]c23)C1 (racemic) [Compound 269, N-(4-Amino-1H-pyrazolo[4,3-c]pyridin-7-yl)-2-oxo-2-[rac-(2R,5R)-5-ethyl-2-methyl-1-piperidyl]acetamide] |  |  |  | > 50 | 5 to 50 | > 125 |  |  |  | 100 to 1000 |  | A (“A” indicates an IC50 ratio greater than or equal to 30 fold) |  | 
C[C@H]1CC[C@H](c2ccc3nn(C)cc3c2)N(C(=O)C(=O)Nc2cnc(N)c3cn[nH]c23)C1 [Compound 124, N-(4-amino-1H-pyrazolo[4,3-c]pyridin-7-yl)-2-oxo-2-[(2R,5S)-5-methyl-2-(2-methylindazol-5-yl)-1-piperidyl]acetamide] | > 50 | < 5 | < 75 |  |  |  |  |  |  | < 100 | B (“B” indicates an IC50 ratio greater than or equal to 15 fold but lower than 30 fold) |  |  | 
C[C@H]1CC[C@H](c2ccc3ccccc3c2)N(C(=O)C(=O)Nc2cnc(N)c3cn[nH]c23)C1 [Compound 79, N-(4-amino-1H-pyrazolo[4,3-c]pyridin-7-yl)-2-((2R,5S)-5-methyl-2-(naphthalen-2-yl)piperidin-1-yl)-2-oxoacetamide] | 5 to 50 | < 5 | < 75 |  |  |  |  |  |  | < 100 | A (“A” indicates an IC50 ratio greater than or equal to 30 fold) |  |  | 
CCOc1cc([C@@H]2CC[C@H](C)CN2C(=O)C(=O)Nc2cnc(N)c3cn[nH]c23)ccn1 [Compound 275] |  |  |  | > 50 | 5 to 50 | > 125 |  |  |  | 100 to 1000 |  | C (“C” indicates an IC50 ratio of less than 15 fold) |  | 
C[C@H]1CC[C@H](c2ccc3cn(C4CCN(C)CC4)nc3c2)N(C(=O)C(=O)Nc2cncc3cn[nH]c23)C1 [Compound 90, 2-oxo-N-(1H-pyrazolo[4,3-c]pyridin-7-yl)-2-[(2R,5S)-5-methyl-2-[2-(1-methyl-4-piperidyl)indazol-6-yl]-1-piperidyl]acetamide] | 5 to 50 | < 5 | < 75 |  |  |  |  |  |  | < 100 | B (“B” indicates an IC50 ratio greater than or equal to 15 fold but lower than 30 fold) |  |  | 

More lines, main results first:

IC50 [1, 3] [nM] | IC50 [2, 5] [nM] | IC90 [2, 6] [nM] | IC50 [1, 7] [nM] | IC50 [2, 8] [nM] | IC90 [2, 9] [nM] | IC50 ([1]; read-out: Hap1 MTAP intact IC50, SDMA in-cell western assay, HAP1 MTAP-intact cell line) [nM] | IC50 ([2]; read-out: Hap1 MTAP deleted IC50, SDMA in-cell western assay, HAP1 MTAP-deleted cell line) [nM] | IC90 ([2]; read-out: Hap1 MTAP deleted IC90, SDMA in-cell western assay, HAP1 MTAP-deleted cell line) [nM] | Structure (SMILES) | IC50 (MTAP-deleted cell line; [4]) [nM] | Hap1 MTAP intact/deleted ratio ([2]; SDMA in-cell western) | Hap1 MTAP intact/deleted ratio ([2]; SDMA in-cell western assay) | IC50 ([1]; Homo sapiens, HAP1, read-out: Hap1 MTAP intact IC50) [nM] | IC50 (MTAP-deleted cell line; viability assay, read-out: Hap1 MTAP deleted viability IC50) [nM]
> 50 | < 5 | < 75 |  |  |  |  |  |  | C[C@H]1CC[C@H](c2ccc3cc(C#N)c(C4CCN(C)CC4)nc3c2)N(C(=O)C(=O)Nc2cncc3cn[nH]c23)C1 [Compound 176, 2-((2R,5S)-2-(3-cyano-2-(1-methylpiperidin-4-yl)quinolin-7-yl)-5-methylpiperidin-1-yl)-2-oxo-N-(1H-pyrazolo[4,3-c]pyridin-7-yl)acetamide] | < 100 | B (“B” indicates an IC50 ratio greater than or equal to 15 fold but lower than 30 fold) |  |  | 
> 50 | < 5 | < 75 |  |  |  |  |  |  | C[C@H]1CC[C@H](c2ccc3sc([C@H]4CCN(C)C[C@H]4C)nc3c2)N(C(=O)C(=O)Nc2ccn3ccnc3c2)C1 (relative stereo) [Compound 58, N-imidazo[1,2-a]pyridin-7-yl-2-oxo-2-[(2R,5S)-5-methyl-2-[2-[rel-(3S,4S)-1,3-dimethyl-4-piperidyl]-1,3-benzothiazol-5-yl]-1-piperidyl]acetamide] | < 100 | A (“A” indicates an IC50 ratio greater than or equal to 30 fold) |  |  | 
> 50 | 5 to 50 | > 125 |  |  |  |  |  |  | C[C@H]1CC[C@H](c2ccc3scnc3c2)N(C(=O)C(=O)Nc2cncc3c(N)n[nH]c23)C1 (racemic) [Compound 139, N-(3-amino-1H-pyrazolo[4,3-c]pyridin-7-yl)-2-oxo-2-[rac-(2R,5S)-2-(1,3-benzothiazol-5-yl)-5-methyl-1-piperidyl]acetamide] | 100 to 1000 | A (“A” indicates an IC50 ratio greater than or equal to 30 fold) |  |  | 
> 50 | < 5 | < 75 |  |  |  |  |  |  | C[C@H]1CC[C@H](c2ccc3sc([C@H]4CCCN(C)C4)nc3c2)N(C(=O)C(=O)Nc2cncc3c(N)nccc23)C1 (relative stereo) [Compound 10, N-(8-amino-2,7-naphthyridin-4-yl)-2-oxo-2-[(2R,5S)-5-methyl-2-[2-[rel-(3S)-1-methyl-3-piperidyl]-1,3-benzothiazol-5-yl]-1-piperidyl]acetamide] | < 100 | A (“A” indicates an IC50 ratio greater than or equal to 30 fold) |  |  | 
> 50 | < 5 | < 75 |  |  |  |  |  |  | C[C@H]1CC[C@H](c2ccc3sc(C4CC(C)(C)N(C)C(C)(C)C4)nc3c2)N(C(=O)C(=O)Nc2cncc3c(N)nccc23)C1 [Compound 46, N-(8-amino-2,7-naphthyridin-4-yl)-2-((2R,5S)-5-methyl-2-(2-(1,2,2,6,6-pentamethylpiperidin-4-yl)benzo[d]thiazol-5-yl)piperidin-1-yl)-2-oxoacetamide] | < 100 | A (“A” indicates an IC50 ratio greater than or equal to 30 fold) |  |  | 
> 50 | < 5 | < 75 |  |  |  |  |  |  | CC(CN1CCCC1)c1nc2cc([C@H]3CC[C@H](C)CN3C(=O)C(=O)Nc3cncc4cn[nH]c34)ccc2s1 (stereo partly drawn) [Compound 100, 2-((2R,5S)-5-methyl-2-(2-(1-(pyrrolidin-1-yl)propan-2-yl)benzo[d]thiazol-5-yl)piperidin-1-yl)-2-oxo-N-(1H-pyrazolo[4,3-c]pyridin-7-yl)acetamide] | < 100 | A (“A” indicates an IC50 ratio greater than or equal to 30 fold) |  |  | 

From patent US20250163048A1 (Tango Therapeutics, Inc., priority 2022, published 2025)
